Data from ChEMBL document CHEMBL3808275, “Design, synthesis and SARs of novel salicylanilides as potent inhibitors of RANKL-induced osteoclastogenesis and bone resorption” (Eur J Med Chem, 2016).
Activity calls are given as the source filed them. The rule behind the calls is not given here.

Tests used:
[1] = Cytotoxicity against mouse RAW264.7 cells assessed as survival rate at 2.5 uM after 24 hrs by MTT assay; assay type: cell-based; settings: read-out: Survival
[2] = Cytotoxicity against mouse RAW264.7 cells assessed as reduction in cell viability after 24 hrs by MTT assay; assay type: cell-based
RAW264.7 [3] = assay: Cytotoxicity against mouse RAW264.7 cells assessed as reduction in cell viability at 5 uM after 24 hrs by MTT assay; assay type: cell-based; settings: raw264.7, 24 h
RAW264.7 [4] = assay: Inhibition of RANKL-induced osteoclast differentiation in mouse RAW264.7 cells assessed as TRAP-positive multinucleated cells level at 2.5 uM incubated with compound in presence of RANKL for 4 days by TRAP staining based light microscopic analysis relative to RANKL alone; assay type: functional; design: scale not given: the % may be the effect or the level left
RAW264.7 [5] = assay: Inhibition of RANKL-induced osteoclast differentiation in mouse RAW264.7 cells assessed as reduction in TRAP-positive multinucleated cells level incubated with compound in presence of RANKL for 4 days by TRAP staining based light microscopic analysis relative to RANKL alone; assay type: functional, cell-based; settings: RAW264.7, 96 h
RAW264.7 [6] = assay: Inhibition of RANKL-induced osteoclastic bone resorption in mouse RAW264.7 cells assessed as bone resorption area at 1.5 uM incubated with compound in presence of RANKL for 4 days by pit formation assay; assay type: functional; design: scale not given: the % may be the effect or the level left
[7] = biological target: T1, Nuclear factor of activated T-cells, cytoplasmic 1 (Mus musculus) (UniProt O88942); assay: Inhibition of RANKL-induced NFATc1 translocation in mouse RAW264.7 cells at 2 uM incubated with compound in presence of RANKL for 24 hrs by propidium iodide staining based Leica fluorescent microscopic analysis; assay type: cell-based
T1 sequence (whole entry): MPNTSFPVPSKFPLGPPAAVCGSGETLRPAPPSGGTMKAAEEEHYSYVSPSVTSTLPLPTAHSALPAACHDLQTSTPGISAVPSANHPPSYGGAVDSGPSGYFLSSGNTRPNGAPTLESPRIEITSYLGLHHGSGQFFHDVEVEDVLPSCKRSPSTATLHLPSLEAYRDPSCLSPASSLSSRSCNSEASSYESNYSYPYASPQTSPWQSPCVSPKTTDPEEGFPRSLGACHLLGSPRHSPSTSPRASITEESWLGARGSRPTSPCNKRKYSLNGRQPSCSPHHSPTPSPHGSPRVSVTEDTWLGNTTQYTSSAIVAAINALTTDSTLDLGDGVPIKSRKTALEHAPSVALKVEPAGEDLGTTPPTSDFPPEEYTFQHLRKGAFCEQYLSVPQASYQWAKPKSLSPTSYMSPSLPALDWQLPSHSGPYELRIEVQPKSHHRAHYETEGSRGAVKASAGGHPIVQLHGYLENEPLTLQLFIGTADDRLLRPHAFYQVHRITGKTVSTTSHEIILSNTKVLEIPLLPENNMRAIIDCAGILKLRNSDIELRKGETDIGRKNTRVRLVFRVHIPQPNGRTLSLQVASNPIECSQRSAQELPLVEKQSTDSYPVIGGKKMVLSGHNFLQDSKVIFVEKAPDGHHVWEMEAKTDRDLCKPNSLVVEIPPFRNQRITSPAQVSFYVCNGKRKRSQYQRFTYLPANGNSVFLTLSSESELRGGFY

RAW264.7 [8] = assay: Inhibition of RANKL-induced osteoclastic bone resorption in mouse RAW264.7 cells assessed as bone resorption area at 1 uM incubated with compound in presence of RANKL for 4 days by pit formation assay; assay type: functional; design: scale not given: the % may be the effect or the level left
[9] = biological target: T1, Nuclear factor of activated T-cells, cytoplasmic 1 (Mus musculus); assay: Inhibition of RANKL-induced NFATc1 translocation in mouse RAW264.7 cells at 1.5 uM incubated with compound in presence of RANKL for 24 hrs by propidium iodide staining based Leica fluorescent microscopic analysis; assay type: cell-based
RAW264.7 [10] = assay: Inhibition of RANKL-induced osteoclastic bone resorption in mouse RAW264.7 cells assessed as bone resorption area at 2 uM incubated with compound in presence of RANKL for 4 days by pit formation assay; assay type: functional; design: scale not given: the % may be the effect or the level left
RAW264.7 [11] = assay: Inhibition of RANKL-induced NFATc1 protein expression in mouse RAW264.7 cells at 1.5 and 2 uM incubated with compound in presence of RANKL for 24 hrs by propidium iodide staining based Leica fluorescent microscopic analysis; assay type: functional, cell-based

O=c1oc2ccc(Cl)cc2c(=O)n1-c1ccc(I)cc1F
viability at 24 h, 2.5 µM [1]: 95.5% | CC50 at 24 h [2]: 6.9 µM | Activity (RAW264.7 [3]): Toxic | Activity (RAW264.7 [4]): 19.1% | IC50 (RAW264.7 [5]): 2.05 µM

O=c1oc2ccc(F)cc2c(=O)n1-c1ccc(I)cc1F
Activity (RAW264.7 [6]): 42.55% | viability at 24 h, 2.5 µM [1]: 102% | CC50 at 24 h [2]: 6 µM | inhibition [7]: Active | Activity (RAW264.7 [3]): Toxic | Activity (RAW264.7 [8]): 73.07% | inhibition [9]: Active | Activity (RAW264.7 [10]): 16.93% | inhibition (RAW264.7 [11]): Active | Activity (RAW264.7 [4]): 13.9% | IC50 (RAW264.7 [5]): 2.05 µM

O=C(Nc1ccc(Br)cc1F)c1cc(F)ccc1O
viability at 24 h, 2.5 µM [1]: 102% | CC50 at 24 h [2]: 7.9 µM | Activity (RAW264.7 [3]): Toxic | Activity (RAW264.7 [4]): 8.7% | IC50 (RAW264.7 [5]): 1.86 µM

O=C(Nc1ccc(I)cc1F)c1cc(Cl)ccc1O
viability at 24 h, 2.5 µM [1]: 108% | CC50 at 24 h [2]: 7.6 µM | Activity (RAW264.7 [3]): Toxic | Activity (RAW264.7 [4]): 2.9% | IC50 (RAW264.7 [5]): 1.84 µM

O=C(Nc1ccc(Br)cc1F)c1cc(Cl)ccc1O
viability at 24 h, 2.5 µM [1]: 106% | CC50 at 24 h [2]: 7.8 µM | Activity (RAW264.7 [3]): Toxic | Activity (RAW264.7 [4]): 23.3% | IC50 (RAW264.7 [5]): 2.14 µM

O=C(Nc1ccc(I)cc1F)c1cc(F)ccc1O
Activity (RAW264.7 [6]): 63.98% | viability at 24 h, 2.5 µM [1]: 100% | CC50 at 24 h [2]: 7.4 µM | inhibition [7]: Active | Activity (RAW264.7 [3]): Toxic | inhibition [9]: Active | Activity (RAW264.7 [10]): 23.22% | inhibition (RAW264.7 [11]): Active | Activity (RAW264.7 [4]): 0.1% | IC50 (RAW264.7 [5]): 1.57 µM

O=C(Nc1ccc(Cl)cc1F)c1cc(Cl)ccc1O
viability at 24 h, 2.5 µM [1]: 109% | CC50 at 24 h [2]: 8 µM | Activity (RAW264.7 [3]): Toxic | Activity (RAW264.7 [4]): 15.8% | IC50 (RAW264.7 [5]): 2.12 µM

O=C(O)c1cc(Br)ccc1O
viability at 24 h, 2.5 µM [1]: 101% | CC50 at 24 h [2]: > 40 µM | Activity (RAW264.7 [3]): Toxic | Activity (RAW264.7 [4]): 96.5%

O=C(Nc1ccc(Br)cc1F)c1cc(Br)ccc1O
viability at 24 h, 2.5 µM [1]: 99.5% | CC50 at 24 h [2]: 7.8 µM | Activity (RAW264.7 [3]): Toxic | Activity (RAW264.7 [4]): 33.1%

O=c1oc2ccc(Br)cc2c(=O)n1-c1ccc(Br)cc1F
viability at 24 h, 2.5 µM [1]: 103% | CC50 at 24 h [2]: 7.2 µM | Activity (RAW264.7 [3]): Toxic | Activity (RAW264.7 [4]): 54.9%

O=C(Nc1ccc(F)cc1F)c1cc(Br)ccc1O
viability at 24 h, 2.5 µM [1]: 91.9% | CC50 at 24 h [2]: 13.8 µM | Activity (RAW264.7 [3]): Toxic | Activity (RAW264.7 [4]): 95.2%

O=C1c2cc(I)ccc2Oc2cc([N+](=O)[O-])ccc2N1c1ccc(I)cc1F
viability at 24 h, 2.5 µM [1]: 98.9% | CC50 at 24 h [2]: > 40 µM | Activity (RAW264.7 [3]): Toxic | Activity (RAW264.7 [4]): 55.7%

O=C1c2cc(F)ccc2Oc2cc([N+](=O)[O-])ccc2N1c1ccc(I)cc1F
viability at 24 h, 2.5 µM [1]: 95.3% | CC50 at 24 h [2]: > 40 µM | Activity (RAW264.7 [3]): Toxic | Activity (RAW264.7 [4]): 85.3%

O=C(O)c1cc(F)ccc1O
viability at 24 h, 2.5 µM [1]: 102% | CC50 at 24 h [2]: > 40 µM | Activity (RAW264.7 [3]): Toxic | Activity (RAW264.7 [4]): 90.9%

O=C(Nc1ccc(Cl)cc1F)c1cc(I)ccc1O
viability at 24 h, 2.5 µM [1]: 94% | CC50 at 24 h [2]: 8.5 µM | Activity (RAW264.7 [3]): Toxic | Activity (RAW264.7 [4]): 26.1%

O=c1oc2ccc(I)cc2c(=O)n1-c1ccc(F)cc1F
viability at 24 h, 2.5 µM [1]: 97.5% | CC50 at 24 h [2]: 15.7 µM | Activity (RAW264.7 [3]): Toxic | Activity (RAW264.7 [4]): 84.8%

O=C(Nc1ccc(F)cc1F)c1cc(I)ccc1O
viability at 24 h, 2.5 µM [1]: 103% | CC50 at 24 h [2]: 13.7 µM | Activity (RAW264.7 [3]): Toxic | Activity (RAW264.7 [4]): 80.5%

O=C1c2cc(F)ccc2Oc2cc([N+](=O)[O-])ccc2N1c1ccc(F)cc1F
viability at 24 h, 2.5 µM [1]: 90.1% | CC50 at 24 h [2]: > 40 µM | Activity (RAW264.7 [3]): Toxic | Activity (RAW264.7 [4]): 92.4%

O=c1oc2ccc(Cl)cc2c(=O)n1-c1ccc(Cl)cc1F
viability at 24 h, 2.5 µM [1]: 99.4% | CC50 at 24 h [2]: 6.8 µM | Activity (RAW264.7 [3]): Toxic | Activity (RAW264.7 [4]): 32.8%

O=C(Nc1ccc(I)cc1F)c1cc(Br)ccc1O
viability at 24 h, 2.5 µM [1]: 99.6% | CC50 at 24 h [2]: 6.4 µM | Activity (RAW264.7 [3]): Toxic | Activity (RAW264.7 [4]): 16% | IC50 (RAW264.7 [5]): 1.93 µM

O=C1c2cc(I)ccc2Oc2cc([N+](=O)[O-])ccc2N1c1ccc(F)cc1F
viability at 24 h, 2.5 µM [1]: 98.2% | CC50 at 24 h [2]: > 40 µM | Activity (RAW264.7 [3]): Toxic | Activity (RAW264.7 [4]): 85.4%

O=C1c2cc(Br)ccc2Oc2cc([N+](=O)[O-])ccc2N1c1ccc(Cl)cc1F
viability at 24 h, 2.5 µM [1]: 102% | CC50 at 24 h [2]: > 40 µM | Activity (RAW264.7 [3]): Toxic | Activity (RAW264.7 [4]): 67.1%

O=C1c2cc(I)ccc2Oc2cc([N+](=O)[O-])ccc2N1c1ccc(Br)cc1F
viability at 24 h, 2.5 µM [1]: 93.4% | CC50 at 24 h [2]: > 40 µM | Activity (RAW264.7 [3]): Toxic | Activity (RAW264.7 [4]): 84.8%

O=C(Nc1ccc(I)cc1F)c1cc(I)ccc1O
viability at 24 h, 2.5 µM [1]: 94.2% | CC50 at 24 h [2]: 6 µM | Activity (RAW264.7 [3]): Toxic | Activity (RAW264.7 [4]): 35.1%

O=C1c2cc(Br)ccc2Oc2cc([N+](=O)[O-])ccc2N1c1ccc(I)cc1F
viability at 24 h, 2.5 µM [1]: 93.2% | CC50 at 24 h [2]: > 40 µM | Activity (RAW264.7 [3]): Toxic | Activity (RAW264.7 [4]): 78.1%
